Reference: PubChem BioAssay (NCI)
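Method: 48-hour compound exposure of cells in 96-well plates, five concentrations, linear interpolation of endpoints. The concentration for 50% growth inhibition is given as GI50. Definition used: TGI = concentration required for complete inhibition of growth.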

Tests used:
Assay in all cases: NCI tumour cell line growth inhibition, 48 h
ACHN renal = test system: ACHN renal
BT-549 breast = test system: BT-549 breast
CCRF-CEM leukemia = test system: CCRF-CEM leukemia
HCT-15 colon = test system: HCT-15 colon
MDA-MB-231 breast = test system: MDA-MB-231 breast
NCI-H226 lung = test system: NCI-H226 lung
OVCAR-5 ovarian = test system: OVCAR-5 ovarian
SK-MEL-2 melanoma = test system: SK-MEL-2 melanoma
SN12C renal = test system: SN12C renal
T-47D breast = test system: T-47D breast

SMILES | GI50 (ACHN renal) [µM] | TGI (ACHN renal) [µM] | GI50 (BT-549 breast) [µM] | TGI (BT-549 breast) [µM] | GI50 (CCRF-CEM leukemia) [µM] | TGI (CCRF-CEM leukemia) [µM] | GI50 (HCT-15 colon) [µM] | TGI (HCT-15 colon) [µM] | GI50 (MDA-MB-231 breast) [µM] | TGI (MDA-MB-231 breast) [µM] | GI50 (NCI-H226 lung) [µM] | TGI (NCI-H226 lung) [µM] | GI50 (OVCAR-5 ovarian) [µM] | TGI (OVCAR-5 ovarian) [µM] | GI50 (SK-MEL-2 melanoma) [µM] | TGI (SK-MEL-2 melanoma) [µM] | GI50 (SN12C renal) [µM] | TGI (SN12C renal) [µM] | GI50 (T-47D breast) [µM] | TGI (T-47D breast) [µM]
CC(C)c1c(C(=O)Nc2ccccc2)c(-c2ccccc2)c(-c2ccc(F)cc2)n1CC[C@@H](O)C[C@@H](O)CC(=O)O | 6.67 | > 91.2 | 15.6 | 41.7 | 21.4 | > 100 | 7.69 | > 100 | 1.61 | 6.63 | 25.5 | > 100 | 57.2 | > 100 | 2.24 | 7.49 | 7.56 | > 100 | 32.1 | > 100
C=C(CN1CCc2ccccc2C1)c1ccc(C(=O)Nc2cccc(N)c2)cc1 | 28.8 | 87.1 | 16.2 | 34.4 | 16.4 | > 100 | 27.4 | 69.8 | 18.1 | 44.8 | 22.3 | 50.8 | 60.9 | > 100 | 23.7 | 48.4 | 18.8 | 36.5 | 27.3 | > 100
COc1cccc(-c2cc(-c3ccc(Nc4nc(Nc5ccc(Cl)cc5)nc(Nc5ccc(Cl)cc5)n4)cc3)nc(N)c2C#N)c1 | 1.98 | 4.5 | 2.44 | 10.9 | 1.91 | 11.5 | 2.46 | > 24.2 | 1.74 | 5.43 | 2.16 | 5.78 | 3.3 | 15.1 | 1.74 | 3.65 | 4.01 | > 100 | 1.34 | 3.67
COc1ncc(-c2ccc3nc(N)n(-c4ccccc4C(F)(F)F)c(=O)c3c2)cc1S(=O)(=O)Nc1ccc(F)cc1F | 5.77 | > 100 | 1.57 | 6.7 | 1.28 | 32.2 | 0.758 | 6.96 | 0.217 | 0.755 | 8.68 | > 100 | 1.03 | 9.81 | 2.28 | 11.9 | 4.52 | > 100 | 0.425 | > 100
CC1(C)N=C(N)N=C(N)N1c1cccc(CC(=O)Nc2ccccc2)c1 | > 100 | > 100 | 45.1 | > 100 | 18.2 | > 100 | > 100 | > 100 | > 100 | > 100 | > 100 | > 100 | > 100 | > 100 | > 100 | > 100 | 4.84 | > 100 | > 100 | > 100
Cc1ccc(CNc2ccc(Cl)cc2NCc2ccc(C)c(O)c2)cc1O | 6.19 | 12.6 | 6.96 | 14.1 | 5.02 | 17.2 | 5.66 | 12.2 | 5.63 | 12.9 | 10 | 22.1 | 8.32 | 16.2 | 6.82 | 14.5 | 6.95 | 14 | 7.4 | 20.1
CC1(C)CC[C@]2(C(=O)O)CC[C@]3(C)C(=CC[C@@H]4[C@@]5(C)C/C(=C/c6cccnc6)[C@H](O)C(C)(C)[C@@H]5CC[C@]43C)[C@@H]2C1 | 6.11 | > 100 | 12.4 | > 100 | 2.88 | 18.5 | 3.85 | 25.6 | 14.9 | 57.3 | 8.63 | 63 | 11.2 | 44 | 17 | 66.1 | 4.7 | > 100 | 9.89 | > 100
CNC(=S)N/N=C/CSC/C=N/NC(=S)NC | > 100 | > 100 | > 100 | > 100 | 24.7 | > 100 | 34.5 | > 100 | > 100 | > 100 | > 100 | > 100 | > 100 | > 100 | > 100 | > 100 | > 100 | > 100 | 0.667 | > 100
